From US20250129103A1, “METHODS FOR TREATMENT OF CANCER” (Frontier Medicines Corporation, priority 2022, published 2025) come the findings set out here.

≈ marks a conversion by molar mass, not a printed value.

Data set [1] concerns the target KRAS G12C (GMPPNP-loaded) and cRAF (Ras-binding domain) interaction (Homo sapiens (Human), UniProt P01116, C118S/C51S/C80L/G12C). In words: Inhibition of KRAS G12C and cRAF binding (AlphaScreen). As to conditions: KRAS G12C loaded with GMPPNP, cRaf RBD, 2 hours preincubation; read-out: Raf-1 RBD K-Ras IC50. The method in brief: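 GMPPNP-loaded KRAS G12C in 25 mM Hepes pH 7.4, 150 mM NaCl, 5 mM MgCl2, 0.01% Triton X-100, 10 μM GMPPNP, 2% DMSO, preincubated with compound 2 h at room temperature. cRAF RBD plus AlphaScreen beads then added for 60-90 min; signal read at 570 nm.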

In data set [2] the target is KRAS G12C (GMPPNP-loaded) and PI3Ka (Ras-binding domain) interaction (Homo sapiens (Human), UniProt P01116, C118S/C51S/C80L/G12C). In words: Inhibition of KRAS G12C and PI3Ka binding (AlphaScreen). The following applies: KRAS G12C loaded with GMPPNP, PI3Ka RBD, 2 hours preincubation; read-out: PI3K RBD K-Ras IC50. Here is the method: The AlphaScreen technology was used to determine IC50S for compound inhibition of KRAS G12C (present as the Cys-light (C51S, C80L and C118S), truncated version comprising amino acids 1-169) and PI3Ka interaction. Compounds were diluted in 100% DMSO and each compound concentration was spotted at 200 nl/well onto low volume, white 384 well plates. The KRAS G12C contained a biotin-AviTag and the PI3Ka, as Ras-binding domain (amino acids 157-300, RBD), was His-tagged. KRAS G12C was preloaded with the GTP analogue Guanosine 5′-[β,γ-imido]triphosphate (GMPPNP). The KRAS G12C was diluted in 25 mM Hepes, pH 7.4, 150 mM NaCl, 5 mM MgCl2, 0.01% TritonX-100 and 10 μM GMPPNP and added at 10 ul/well to compound-spotted plates resulting in a DMSO concentration of 2%. Plates were incubated for 2 hours. A mixture of RBD and the AlphaScreen streptavidin donor and nickel chelate acceptor beads diluted in 25 mM Hepes, pH 7.4, 150 mM NaCl, 5 mM MgCl2, 0.01% TritonX-100 and 2% DMSO was then added at 10 ul/well and incubated for 60-90 minutes before the samples were read for emission at 570 nm after excitation of the donor beads at 680 nm. All incubations were performed at room temperature. The final top compound concentration was 50 μM with 1:3 titrations for 10-point dose response curves. Final assay conditions were 1.5 nM KRAS G12C, 100 nM RBD, 1.25 ug/ml of AlphaScreen donor beads and 10 μg/ml AlphaLISA acceptor beads. IC50s were determined using nonlinear regression fit of [inhibitor] vs. response (4 parameters). […]

The nature of data set [3]: Determination of kinetic solubility (pH 7.4). It counts as physicochemical. The following applies: phosphate buffer, pH 7.4, aqueous buffer, kinetic from dmso stock, 50 mM phosphate buffer pH 7.4, read-out: Ksol, pH 7.4. An outline of the steps: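 Sample mixed with 50 mM phosphate buffer, pH 7.4, vortexed, then shaken 2 h at room temperature and centrifuged. Filtrate analysed by HPLC-UV and LC-MS/MS, with solubility read from peak areas against a standard calibration curve.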

Data set [4] can be described thus: Determination of logD (1-octanol / phosphate buffer pH 7.4). It counts as physicochemical. As to conditions: 1-octanol/phosphate buffer, pH 7.4, pH 7.4, 1-octanol/phosphate buffer; read-out: Log D, pH 7.4. An outline of the steps:
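Shake-flask partition between 1-octanol and 100 mM phosphate buffer pH 7.4, each phase presaturated with the other overnight. Tubes shaken 1 h at 800 rpm, room temperature, then centrifuged. Both phases quantified by LCMS and logD calculated from the ratio.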

KRAS G12C (GMPPNP-loaded) and cRAF (Ras-binding domain) interaction, sequence (P01116 other isoform, or with tags, fused parts or gaps G12C/C51S/C80L/C118S): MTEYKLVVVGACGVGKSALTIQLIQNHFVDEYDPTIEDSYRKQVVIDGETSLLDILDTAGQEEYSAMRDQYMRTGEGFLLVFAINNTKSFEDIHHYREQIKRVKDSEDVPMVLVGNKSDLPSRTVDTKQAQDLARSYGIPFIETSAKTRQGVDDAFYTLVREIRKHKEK
KRAS G12C (GMPPNP-loaded) and PI3Ka (Ras-binding domain) interaction, sequence (P01116 other isoform, or with tags, fused parts or gaps G12C/C51S/C80L/C118S): as above

As to `Cc1cc(N)nc(C2Cc3nc(OC[C@@]45CCCN4C[C@H](F)C5)nc(N4CCN(C(=O)/C=C/c5nc(C(C)C)no5)[C@@H](CC#N)C4)c3CC2C)c1C(F)(F)F` (mixture of isomers) [Example 66, 2-((2S)-4-(7-(6-amino-4-methyl-3-(trifluoromethyl)pyridin-2-yl)-2-(((2R,7aS)-2-fluorotetrahydro-1H-pyrrolizin-7a(5H)-yl)methoxy)-6-methyl-5,6,7,8-tetrahydroquinazolin-4-yl)-1-((E)-3-(3-isopropyl-1,2,4-oxadiazol-5-yl)acryloyl)piperazin-2-yl)acetonitrile], the IC50 in data set [1] and in data set [2] was 10 to 100 nM in each case.

Consider `CN1CCC1/C=C/C(=O)N1CCN(c2nc(OC[C@@]34CCCN3C[C@H](F)C4)nc3c(F)c(-c4cccc5cccc(Cl)c45)ncc23)C[C@@H]1CC#N` (some centres unmarked) [Compound 51], for which the IC50 in data set [1] and in data set [2] was 10 to 100 nM throughout.

Consider `N#CC[C@H]1CN(c2nc(OC[C@@]34CCCN3C[C@H](F)C4)nc3c(F)c(-c4cccc5cccc(Cl)c45)ncc23)CCN1C(=O)/C=C/CN1CCSCC1` [Compound 97, 2-((S)-4-(7-(8-chloronaphthalen-1-yl)-8-fluoro-2-(((2R,7aS)-2-fluorohexahydro-1H-pyrrolizin-7a-yl)methoxy)pyrido[4,3-d]pyrimidin-4-yl)-1-((E)-4-thiomorpholinobut-2-enoyl)piperazin-2-yl)acetonitrile], for which the IC50 in data set [1] and in data set [2] was under 10 nM throughout.

Regarding `N#CC[C@H]1CN(c2nc(OC[C@@]34CCCN3C[C@H](F)C4)nc3c(F)c(-c4cccc(Cl)c4C4CC4)ncc23)CCN1C(=O)/C=C/CN1[C@@H]2CC[C@H]1COC2` [Compound 100, 2-((S)-1-((E)-4-((1R,5S)-3-oxa-8-azabicyclo[3.2.1]octan-8-yl)but-2-enoyl)-4-(7-(3-chloro-2-cyclopropylphenyl)-8-fluoro-2-(((2R,7aS)-2-fluorotetrahydro-1H-pyrrolizin-7a(5H)-yl)methoxy)pyrido[4,3-d]pyrimidin-4-yl)piperazin-2-yl)acetonitrile], the IC50 in data set [1] and in data set [2] was under 10 nM throughout.

Consider `Cc1nccc(/C=C/C(=O)N2CCN(c3nc(OC[C@@]45CCCN4C[C@H](F)C5)nc4c(F)c(-c5cccc(Cl)c5C5CC5)ncc34)C[C@@H]2CC#N)n1` [Compound 104, 2-((S)-4-(7-(3-chloro-2-cyclopropylphenyl)-8-fluoro-2-(((2R,7aS)-2-fluorotetrahydro-1H-pyrrolizin-7a(5H)-yl)methoxy)pyrido[4,3-d]pyrimidin-4-yl)-1-((E)-3-(2-methylpyrimidin-4-yl)acryloyl)piperazin-2-yl)acetonitrile], for which the IC50 in data set [1] and in data set [2] was under 10 nM in each case.

As to `CCc1nccc(/C=C/C(=O)N2CCN(c3nc(OC[C@@]45CCCN4C[C@H](F)C5)nc4c(F)c(-c5cccc6cccc(Cl)c56)ncc34)C[C@@H]2CC#N)n1` [Compound 150], the IC50 in data set [1] and in data set [2] was under 10 nM in each case.

As for `N#CC[C@H]1CN(c2nc(OCC34CCCN3CCC4)nc3c2CCN(c2cccc4cccc(Cl)c24)C3)CCN1C(=O)/C=C/CN1CCC(F)(F)CC1` [Compound 159], the IC50 in data set [1] and in data set [2] was under 10 nM each time.

Take `CC1(C)CN(C/C=C/C(=O)N2CCN(c3nc(OCC45CCCN4CCC5)nc4c3CCN(c3cccc5cccc(Cl)c35)C4)C[C@@H]2CC#N)CCO1` [Compound 165]: the IC50 in data set [1] and in data set [2] was under 10 nM in each case.

In the case of `N#CC[C@H]1CN(c2nc(OCC34CCCN3CCC4)nc3c2CCN(c2cccc4cccc(Cl)c24)C3)CCN1C(=O)/C=C/CN1CCCCC1` [Compound 170], the IC50 in data set [1] and in data set [2] was under 10 nM throughout.

On to `N#CC[C@H]1CN(c2nc(OC[C@@]34CCCN3C[C@H](F)C4)nc3c(F)c(-c4cccc5cccc(Cl)c45)ncc23)CCN1C(=O)/C=C/CN1C[C@@H]2C[C@H]1CO2` [Compound 180], for which the IC50 in data set [1] and in data set [2] was under 10 nM throughout.

On to `N#CC[C@H]1CN(c2nc(OCC34CCCN3CCC4)nc3c2CCN(c2cccc4cccc(Cl)c24)C3)CCN1C(=O)/C=C/CN1CCN(C2COC2)CC1` [Compound 317], for which the solubility kinetic at 2 h in data set [3] amounted to 114 µg/mL (≈ 148 µM). Also, in data set [4], the logD is 2.01. Besides, the IC50 in data set [1] is under 10 nM.

For `N#CC[C@H]1CN(c2nc(OC[C@@]34CCCN3C[C@H](O)C4)nc3c(F)c(-c4cccc5cccc(Cl)c45)ncc23)CCN1C(=O)/C=C/CN1CCOCC1` [Compound 319], in data set [3], the solubility kinetic at 2 h stood at 123 µg/mL (≈ 166 µM). In addition, in data set [4], the logD came out at 1.54. Moreover, the IC50 in data set [1] was under 10 nM.

With `N#CC[C@H]1CN(c2nc(OC[C@@]34CCCN3C[C@H](O)C4)nc3c(F)c(-c4cccc5ccc(F)c(Cl)c45)ncc23)CCN1C(=O)/C=C/CN1CCOCC1` [Compound 321], the solubility kinetic at 2 h in data set [3] was 162 µg/mL (≈ 214 µM). The logD in data set [4] came out at 1.52. In data set [1], the IC50 was under 10 nM.

Regarding `Cc1cc(N)nc([C@H]2Cc3nc(OC[C@@]45CCCN4C[C@H](F)C5)nc(N4CCN(C(=O)/C=C/CN(C)C)[C@@H](CC#N)C4)c3C[C@@H]2C)c1C(F)(F)F` [Compound 323], the solubility kinetic at 2 h in data set [3] was found to be 74.5 µg/mL (≈ 104 µM). In addition, the logD in data set [4] came out at 2.71. Besides, the IC50 in data set [1] is 100 to 500 nM.

As for `N#CC[C@H]1CN(c2nc(OC[C@@]34CCCN3C[C@H](F)C4)nc3c(F)c(-c4cccc5cccc(Cl)c45)ncc23)CCN1C(=O)/C=C/CN1CCN(C2COC2)CC1` [Compound 325], the solubility kinetic at 2 h in data set [3] amounted to 115 µg/mL (≈ 144 µM). Moreover, the logD in data set [4] was found to be 2.5. Moreover, the IC50 in data set [1] is under 10 nM.

As to `Cc1noc(/C=C/C(=O)N2CCN(c3nc(OCC45CCCN4CCC5)nc4c(F)c(-c5cccc6cccc(Cl)c56)ncc34)C[C@@H]2CC#N)n1` [Example 5, (S,E)-2-(4-(7-(8-chloronaphthalen-1-yl)-8-fluoro-2-((tetrahydro-1H-pyrrolizin-7a(5H)-yl)methoxy)pyrido[4,3-d]pyrimidin-4-yl)-1-(3-(3-methyl-1,2,4-oxadiazol-5-yl)acryloyl)piperazin-2-yl)acetonitrile], in data set [3], the solubility kinetic at 2 h amounted to 161 µg/mL (≈ 227 µM). Moreover, the logD in data set [4] amounted to 2.15. Moreover, the IC50 in data set [1] is 10 to 100 nM.

With `N#CC[C@H]1CN(c2nc(OCC34CCCN3CCC4)nc3c2CCN(c2cccc4cccc(Cl)c24)C3)CCN1C(=O)/C=C/c1nc(C2COC2)no1` [Example 6, (S,E)-2-(4-(7-(8-chloronaphthalen-1-yl)-2-((tetrahydro-1H-pyrrolizin-7a(5H)-yl)methoxy)-5,6,7,8-tetrahydropyrido[3,4-d]pyrimidin-4-yl)-1-(3-(3-(oxetan-3-yl)-1,2,4-oxadiazol-5-yl)acryloyl)piperazin-2-yl)acetonitrile], in data set [3], the solubility kinetic at 2 h was 86.4 µg/mL (≈ 117 µM). The logD in data set [4] was determined as 2.72. Besides, the IC50 in data set [1] lay in the range of 10 to 100 nM.

For the compound `N#CC[C@H]1CN(c2nc(OC[C@@]34CCCN3C[C@H](F)C4)nc3c2CCN(c2cccc4cccc(Cl)c24)C3)CCN1C(=O)/C=C/c1nc(C2COC2)no1` [Example 7, 2-((S)-4-(7-(8-chloronaphthalen-1-yl)-2-(((2R,7aS)-2-fluorohexahydro-1H-pyrrolizin-7a-yl)methoxy)-5,6,7,8-tetrahydropyrido[3,4-d]pyrimidin-4-yl)-1-((E)-3-(3-(oxetan-3-yl)-1,2,4-oxadiazol-5-yl)acryloyl)piperazin-2-yl)acetonitrile], the solubility kinetic at 2 h in data set [3] stood at 0.01 µg/mL (≈ 0.0133 µM). Besides, the logD in data set [4] is 2.69. In data set [1], the IC50 is under 10 nM.

Regarding `CC(C)(O)c1noc(/C=C/C(=O)N2CCN(c3nc(OCC45CCCN4CCC5)nc4c3CCN(c3cccc5cccc(Cl)c35)C4)C[C@@H]2CC#N)n1` [Example 16, (S,E)-2-(4-(7-(8-chloronaphthalen-1-yl)-2-((hexahydro-1H-pyrrolizin-7a-yl)methoxy)-5,6,7,8-tetrahydropyrido[3,4-d]pyrimidin-4-yl)-1-(3-(3-(2-hydroxypropan-2-yl)-1,2,4-oxadiazol-5-yl)acryloyl)piperazin-2-yl)acetonitrile], the solubility kinetic at 2 h in data set [3] came to 73.1 µg/mL (≈ 99 µM). In data set [4], the logD turned out to be 3.04. Also, the IC50 in data set [1] fell in the range of 10 to 100 nM.
